From the NIST ThermoML archive (doi:10.1021/je100315g)

Assays:
[1] = 101 kPa, Liquid
[2] = xn = mol fraction of the nth substance listed; conditions: 101 kPa, Liquid

CCCC[n+]1ccn(C)c1.O=S(=O)([N-]S(=O)(=O)C(F)(F)F)C(F)(F)F
[1]
Conditions | mass density [kg/m3]
293.15 K | 1441.63
298.15 K | 1436.83
303.13 K | 1431.98
308.15 K | 1427.16
313.15 K | 1422.36

CCn1cc[n+](C)c1.O=S(=O)([N-]S(=O)(=O)C(F)(F)F)C(F)(F)F
[1]
Conditions | mass density [kg/m3]
293.15 K | 1522.08
298.15 K | 1516.96
303.13 K | 1511.85
308.15 K | 1506.8
313.15 K | 1501.74

CCCC[n+]1ccn(C)c1.O=S(=O)([N-]S(=O)(=O)C(F)(F)F)C(F)(F)F + C[S+](C)[O-]
mass density [kg/m3], [2]
Conditions | 293.15 K | 298.15 K | 303.13 K | 308.15 K | 313.15 K
x1 = 0.1025 | 1202.34 | 1197.39 | 1192.43 | 1187.49 | 1182.55
x1 = 0.196 | 1263.15 | 1258.21 | 1253.26 | 1248.31 | 1243.37
x1 = 0.2358 | 1283.38 | 1278.4 | 1273.45 | 1268.49 | 1263.51
x1 = 0.3241 | 1319.45 | 1314.52 | 1309.58 | 1304.64 | 1299.72
x1 = 0.4205 | 1349.72 | 1344.81 | 1339.88 | 1334.99 | 1330.05
x1 = 0.4785 | 1364.67 | 1359.72 | 1354.8 | 1349.87 | 1344.87
x1 = 0.5179 | 1373.61 | 1368.67 | 1363.77 | 1358.86 | 1353.93
x1 = 0.5911 | 1388.28 | 1383.33 | 1378.5 | 1373.59 | 1368.72
x1 = 0.6581 | 1400.07 | 1395.16 | 1390.25 | 1385.42 | 1380.54
x1 = 0.8232 | 1423.06 | 1418.22 | 1413.34 | 1408.48 | 1403.6
x1 = 1 | 1441.63 | 1436.83 | 1431.98 | 1427.16 | 1422.36

CC#N [acetonitrile]
[1]
Conditions | mass density [kg/m3]
293.15 K | 781.89
298.15 K | 776.52
303.13 K | 771.12
308.15 K | 765.68
313.15 K | 760.2

CC#N [acetonitrile] + CCCC[n+]1ccn(C)c1.O=S(=O)([N-]S(=O)(=O)C(F)(F)F)C(F)(F)F
[2], x2 = 0
Conditions | mass density [kg/m3]
293.15 K | 781.89
298.15 K | 776.52
303.13 K | 771.12
308.15 K | 765.68
313.15 K | 760.2

CC#N [acetonitrile] + CCn1cc[n+](C)c1.O=S(=O)([N-]S(=O)(=O)C(F)(F)F)C(F)(F)F
[2], x2 = 0
Conditions | mass density [kg/m3]
293.15 K | 781.89
298.15 K | 776.52
303.13 K | 771.12
308.15 K | 765.68
313.15 K | 760.2

C[S+](C)[O-] [dimethyl sulfoxide]
[1]
Conditions | mass density [kg/m3]
293.15 K | 1100.31
298.15 K | 1095.3
303.13 K | 1090.31
308.15 K | 1085.27
313.15 K | 1080.27

C[S+](C)[O-] [dimethyl sulfoxide] + CCCC[n+]1ccn(C)c1.O=S(=O)([N-]S(=O)(=O)C(F)(F)F)C(F)(F)F
[2], x2 = 0
Conditions | mass density [kg/m3]
293.15 K | 1100.31
298.15 K | 1095.3
303.13 K | 1090.31
308.15 K | 1085.27
313.15 K | 1080.27

C[S+](C)[O-] [dimethyl sulfoxide] + CCn1cc[n+](C)c1.O=S(=O)([N-]S(=O)(=O)C(F)(F)F)C(F)(F)F
[2], x2 = 0
Conditions | mass density [kg/m3]
293.15 K | 1100.31
298.15 K | 1095.3
303.13 K | 1090.31
308.15 K | 1085.27
313.15 K | 1080.27

C1CCOC1 [tetrahydrofuran]
[1]
Conditions | mass density [kg/m3]
293.15 K | 887.41
298.15 K | 881.98
303.13 K | 876.47
308.15 K | 870.96

C1CCOC1 [tetrahydrofuran] + CCCC[n+]1ccn(C)c1.O=S(=O)([N-]S(=O)(=O)C(F)(F)F)C(F)(F)F
[2], x2 = 0
Conditions | mass density [kg/m3]
293.15 K | 887.41
298.15 K | 881.98
303.13 K | 876.47
308.15 K | 870.96

C1CCOC1 [tetrahydrofuran] + CCn1cc[n+](C)c1.O=S(=O)([N-]S(=O)(=O)C(F)(F)F)C(F)(F)F
[2], x2 = 0
Conditions | mass density [kg/m3]
293.15 K | 887.41
298.15 K | 881.98
303.13 K | 876.47
308.15 K | 870.96
